# US6740505B1, “Production of proteins” (SmithKline Beecham Corporation, priority 1998, dated 2004)
# Tests used:
# [1] = test system: recombinant murine NS0 cells transfected with a IgG1 humanised anti-CD23 antibody; assay: Antibody titre (Human IgG by nephelometric method) in repeated batch NS0 cell culture; type: cell-based; conditions: 56 day culture
# Method: (§1) Five Erlenmeyer flasks were inoculated with recombinant murine NS0 cells transfected with a IgG1 humanised anti-CD23 antibody (produced according to the method of Bebbington et al, as supra) in a cholesterol containing protein free/glutamine free medium at 0.2×10^6 cells/ml. Sodium butyrate (0.5M) in PBS was added to the flasks at the following concentrations: 0 mM; 0.025 mM; 0.05 mM; 0.075 mM and 0.10 mM and were incubated at […] and 100 rpm in a shake incubator for 4 days. Subsequently, the flasks were subcultured every four days to a start count of […], maintaining sodium butyrate concentrations as above in each flask. The flasks were sampled and assayed before each subculture. The culture was continued in this ‘draw-fill’/‘repeated batch’ manner for 56 days, maintaining sodium butyrate concentrations at the concentrations indicated throughout. Viable cells were counted for each sample taken as outlined below. Antibody titre for each sample taken was determined as outlined below.
# The quantity of Human IgG was determined by a Nephelometric method (Tanford, C. (1961) Light Scattering. Physical Chemistry of Macromolecules. New York:Wiley, 275-316; Whicher J. T et al (1978), “An evaulation of Hyland laser nephelometer PDQ system for the measurement of immunoglobulins”; Ann.Clin.Biochem. 15, p77-85), whereby the formation of insoluble immune-precipitin of Human IgG with highly specific antibody to Human IgG was measured. The Nephelometer measured the intensity of the light scattered by the insoluble immune-precipitin in reaction solution. The change in intensity of the scattered light signal is proportional to the concentration of Human IgG in tested sample. The quantity of Human IgG in the sample is measured from a standard curve constructed from known concentration of purified Human IgG versus the rate of light scatter signal.
# [2] = test system: recombinant murine NS0 cells transfected with a IgG1 humanised anti-CD23 antibody; assay: Viable cell count (Erythrosin B exclusion, haemocytometer) in repeated batch NS0 cell culture; type: cell-based; conditions: 0.075 mM butyrate
# Method: as §1
# Culture was diluted as necessary in culture medium. It was examined microscopically in a haemocytometer (Neubauer counting chamber) using Erythrosin B (Sigma) 0.04% w/v in PBS, pH 7 as an exclusion dye. The number of viable and non-viable cells per milliliter and the percentage viability of the culture was calculated.
compound,measurement,setting,value
"CCCC(=O)[O-].[Na+] [Butyrate, sodium butyrate]",antibody titre over control,[1]; 0.075 mM butyrate maintained in medium,marked increase in antibody titre over control
same,antibody titre over control,"[1]; 0.075 mM butyrate maintained in medium, listed as butyrate",marked increase over control
same,consistency of protein production during the culturing process,[1]; 0.075 mM butyrate,more consistent production
same,antibody titre over control,[1]; 0.1 mM butyrate maintained in medium,marked increase in antibody titre over control
same,consistency of protein production during the culturing process,[1]; 0.1 mM butyrate,erratic protein production
same,decrease in viable cell count compared to control,[2]; by 56 day,narrowed considerably
same,viable cell count compared to control,[2]; early stages of the culturing process,slight decrease in viable cell count
